{
  "source": "patent US10874098B2",
  "about": "“Organ preservation composition” (TX Innovations B.V., priority 2015, dated 2020)",
  "origin": "cited, not measured here",
  "key": {"[1]": {"tested_on": "lung ischemia-reperfusion injury after lung transplantation", "settings": "intraperitoneal treatment of the donor animal three days before harvesting"}},
  "data": [
    {"molecule": "L-alanine-L-glutamine", "values": [
      {"measurement": "stability in aqueous solutions", "result": "more stable in aqueous solutions and does not spontaneously degrade"}
    ]},
    {"molecule": "NCCS(=O)(=O)O", "note": "[taurine]", "values": [
      {"measurement": "preservation of the transplanted lung", "setting": "[1]", "result": "preservation of the transplanted lung in respect to histopathological and biochemical findings"}
    ]},
    {"molecule": "C[C@H](N)C(=O)O", "note": "[L-alanine]", "values": [
      {"measurement": "stability in aqueous solutions", "result": "spontaneously degrade"}
    ]}
  ]
}
